In experiment [1] the target is T1, D(3) dopamine receptor (Homo sapiens, UniProt P35462).
Description: (§1) Displacement of [3H]N-methylspiperone from human dopamine D3 receptor by liquid scintillation counting
The target of experiment [2] is T2, D(2) dopamine receptor (Homo sapiens, UniProt P14416).
Description: (§2) Displacement of [3H]N-methylspiperone from human dopamine D2 receptor by liquid scintillation counting
A further experiment has as its target T3, D(4) dopamine receptor (Homo sapiens, UniProt P21917).
T3 sequence (P21917 whole entry): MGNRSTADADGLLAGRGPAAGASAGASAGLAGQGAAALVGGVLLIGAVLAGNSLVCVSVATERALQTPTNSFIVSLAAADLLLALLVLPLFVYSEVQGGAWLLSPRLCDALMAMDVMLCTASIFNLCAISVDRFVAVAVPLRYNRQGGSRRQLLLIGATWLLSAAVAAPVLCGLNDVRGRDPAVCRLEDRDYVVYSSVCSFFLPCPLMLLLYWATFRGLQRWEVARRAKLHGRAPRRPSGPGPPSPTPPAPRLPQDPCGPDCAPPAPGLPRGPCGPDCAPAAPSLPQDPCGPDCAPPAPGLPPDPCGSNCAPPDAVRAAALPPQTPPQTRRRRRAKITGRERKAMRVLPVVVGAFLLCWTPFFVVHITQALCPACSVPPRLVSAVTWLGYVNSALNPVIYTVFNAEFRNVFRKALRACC

For experiment [3], the target named is T2, D(2) dopamine receptor. This is another data set of the same source.
Description: as §2
For experiment [4], the target named is T1, D(3) dopamine receptor. This is another data set of the same source.
Description: as §1
For experiment [5], the target named is T4, D(4) dopamine receptor (Homo sapiens) (UniProt P21917).
T4 sequence (whole entry): T3 sequence (P21917 whole entry)

Broadly, the Ki is a measure of affinity in units of concentration, obtained from inhibition or displacement. Read a low Ki as a stronger hold on the target.

Calls of active or inactive are those of the source. No cut-off for these calls is given here.

T1 sequence (P35462 whole entry): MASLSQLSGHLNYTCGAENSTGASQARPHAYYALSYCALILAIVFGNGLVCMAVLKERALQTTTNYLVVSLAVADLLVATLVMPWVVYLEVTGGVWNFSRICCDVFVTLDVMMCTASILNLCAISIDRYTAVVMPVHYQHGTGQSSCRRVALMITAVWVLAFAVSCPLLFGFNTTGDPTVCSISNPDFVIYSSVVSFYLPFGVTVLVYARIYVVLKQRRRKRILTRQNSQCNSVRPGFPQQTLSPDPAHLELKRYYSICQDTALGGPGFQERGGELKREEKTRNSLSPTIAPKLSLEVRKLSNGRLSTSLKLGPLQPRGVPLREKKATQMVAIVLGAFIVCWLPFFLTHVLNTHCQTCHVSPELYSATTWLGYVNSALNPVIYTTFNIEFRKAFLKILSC
T2 sequence (P14416 whole entry): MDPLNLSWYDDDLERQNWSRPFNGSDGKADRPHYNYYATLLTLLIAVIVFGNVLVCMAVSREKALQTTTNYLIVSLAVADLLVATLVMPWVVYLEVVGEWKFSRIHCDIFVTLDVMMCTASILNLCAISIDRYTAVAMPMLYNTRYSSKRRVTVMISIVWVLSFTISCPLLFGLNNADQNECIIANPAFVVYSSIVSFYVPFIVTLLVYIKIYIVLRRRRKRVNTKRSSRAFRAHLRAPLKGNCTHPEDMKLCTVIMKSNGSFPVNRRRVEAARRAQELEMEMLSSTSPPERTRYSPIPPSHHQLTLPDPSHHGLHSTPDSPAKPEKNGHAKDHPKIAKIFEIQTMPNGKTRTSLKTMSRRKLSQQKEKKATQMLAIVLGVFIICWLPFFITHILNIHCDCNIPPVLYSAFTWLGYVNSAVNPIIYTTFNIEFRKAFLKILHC

On to `OC1(c2ccc(Cl)cc2)CC2CCC(C1)N2CCc1c[nH]c2ccccc12` (stereo not drawn), for which the Ki stood at 0.018 µM at D(3) dopamine receptor [1] and 0.053 µM at D(2) dopamine receptor [2].

For `OC1(c2ccc(Cl)cc2)CC2CCC(C1)N2Cc1c[nH]c2ncccc12` (stereo not drawn), on D(2) dopamine receptor [2], the inhibitory constant (Ki) is 0.588 µM.

Consider `Clc1ccc(N2CC3CC2CN3Cc2c[nH]c3ncccc23)cc1` (stereo not drawn), for which the Ki turned out to be 0.011 µM at D(3) dopamine receptor [1], 0.062 µM on D(2) dopamine receptor [2] and 0.069 µM at D(4) dopamine receptor.

For the compound `OC1(c2ccc(Cl)cc2)CCN(Cc2c[nH]c3ncccc23)C1` (stereo not drawn), the outcome at D(2) dopamine receptor [3] and at D(3) dopamine receptor [4] was inactive. In addition, the affinity on D(4) dopamine receptor, expressed as Ki, was 1.21 µM.

`Clc1ccc(N2CCCN(Cc3c[nH]c4ncccc34)CC2)cc1`: the Ki on D(3) dopamine receptor [1] was 0.37 µM; on D(2) dopamine receptor [2], 0.97 µM; on D(4) dopamine receptor, 0.0186 µM.

Take `OC1(c2ccc(Cl)cc2)CCN(CCc2c[nH]c3ccccc23)C1` (stereo not drawn): the Ki on D(3) dopamine receptor [1] worked out at 3.07 µM. Moreover, the outcome (at D(2) dopamine receptor [3]; in experiment [5]) was inactive.

On to `OC1(c2ccc(Cl)cc2)CCN(Cc2c[nH]c3ccccc23)C1` (stereo not drawn), for which the Ki is 2.87 µM at D(3) dopamine receptor [1] and 0.816 µM at D(4) dopamine receptor. Further, the outcome at D(2) dopamine receptor [3] was inactive.

Take `c1cnc(N2CCN(Cc3c[nH]c4ncccc34)CC2)nc1`: the Ki on D(3) dopamine receptor [1] was found to be 1.5 µM; on D(2) dopamine receptor [2] it was 1.17 µM; at D(4) dopamine receptor it was 0.056 µM.

For the compound `O=C(CCCN1CC2CC1N(c1ccc(Cl)cc1)C2)c1ccc(F)cc1` (stereo not drawn), the Ki at D(3) dopamine receptor [1] is 0.22 µM; at D(2) dopamine receptor [2], 0.17 µM; at D(4) dopamine receptor, 0.513 µM.

Consider `O[C@]1(c2ccc(Cl)cc2)C[C@H]2CC[C@@H](C1)N2Cc1c[nH]c2ccccc12`, for which the results for the Ki on D(3) dopamine receptor [1] and on D(4) dopamine receptor were 0.025 µM and 3.01 µM, respectively.

The compound `O=C(CCCN1CCN(c2ccc(Cl)cc2)CC1)c1ccc(F)cc1` displayed a Ki on D(4) dopamine receptor of 0.017 µM.

As for `O=C(CN1C2CCC1CC(O)(c1ccc(Cl)cc1)C2)c1ccc(F)cc1` (stereo not drawn), at D(3) dopamine receptor [1], the Ki was over 10 µM.

The record behind these values is ChEMBL document CHEMBL1152692, “Synthesis and evaluation of ligands for D2-like receptors: the role of common pharmacophoric groups” (Bioorg Med Chem, 2009).
